Earlier results in patent US4666715A, “Antibiotic AM-5344-A2 substance and process for the production thereof” (Kitasato Institute, priority 1980, dated 1987).

How the values were obtained:
[1] = known antibiotics, literature
Gram-positive bacterium = conditions: known antibiotics, literature
[2] = known antibiotics, literature; remark: listed apart in the source

CO[C@H]1[C@@H](O)[C@@H](C)O[C@H](O[C@H]2[C@H](Oc3cccc4c(O)c5c(=O)oc6ccc(C)c7c(=O)oc(c34)c5c67)O[C@H](C)[C@H](O)[C@@H]2O)[C@@H]1O [Chartreusin]
fat solubility [1]: fat-soluble | effective to Gram-positive bacteria (Gram-positive bacterium): effective | acidity (neutral) [2]: neutral

COC(=O)c1cc2cc3cc4cc(CC(=O)O)c(C(=O)/C=C(\O)c5ccccc5O)c(OC)c4c(OC)c3c(O)c2c(=O)o1 [Thermorubin A]
effective to Gram-positive bacteria (Gram-positive bacterium): effective | acidity (neutral) [2]: neutral

Cerulomycin
effective to Gram-positive bacteria (Gram-positive bacterium): effective | acidity (neutral) [2]: neutral

Mekemycin
effective to Gram-positive bacteria (Gram-positive bacterium): effective | acidity (neutral) [2]: neutral
